Here are results for one compound from US5631279A, “Perhydroisoindole derivatives, preparation thereof and pharmaceutical compositions containing same” (Rhone-Poulenc Rorer, S.A., priority 1993, dated 1997).

Structures are written as SMILES.

For the test, the system named is rabbit pulmonary artery. Briefly: Antagonism of rabbit pulmonary artery contractions induced by [Lys5 MeLeu9 Nle10]NKA(4-10). Details: species or system rabbit (male, New Zealand albino). Conditions: product incubated for 2 hours; [Lys5 MeLeu9 Nle10]NKA(4-10) as agonist; Krebs solution 37° C. Here is the method:
The in vitro antagonistic activity of the products is determined with respect to rabbit pulmonary artery contractions induced by [Lys^5 MeLeu^9 Nle^10 ]NKA(4-10) according to the technique described by D. Regoli et al., Trends Pharmacol. Sci, 2, 290-295 (1988) and P. D'Orleans-Juste et al., Eur. J. Pharmacol., 125, 37-44 (1985). The pulmonary artery of the rabbit (male, New Zealand albino) is withdrawn; the endothelium is destroyed by introduction into the arterial lumen of a glass rod coated with filter paper, and the artery is then cut into rings and incubated in an isolated-organ tank containing an oxygenated Krebs solution (95% O2; 5% CO2) at 37° C. at a tension of 1 g. After determining the agonistic activity of [Lys^5 MeLeu9Nle^10 ]NKA(4-10) (contractile effect), the product to be studied is incubated for 2 hours in the isolated-organ tank before a further addition of [Lys^5 MeLeu^9 Nle^10 ]NKA(4-10). The percentage inhibition obtained is calculated. The antagonistic activity of a product is expressed in terms of IC^50.
In the above technique, the products studied display an antagonism to rabbit pulmonary artery contractions at the following concentration: […]

Usually IC50 stands for the concentration at which inhibition is half-maximal. Compound `COc1ccccc1[C@@]1(O)[C@H](O)CC(c2ccccc2)(c2ccccc2)[C@@H]2CN(C(=O)Cc3c[nH]c4ccccc34)C[C@@H]21` [Example 1] displayed a half-inhibitory concentration (IC50) of 215 nM.
